System: Healthy volunteer
Assay: Phase 1 single-ascending dose study
Settings: for Median glucose peak after breakfast: 1 hour post breakfast, 3.5 hours post dose; for Median glucose peak after dinner: 1 hour post dinner, […] post dose; for Median glucose peak after lunch: 1 hour post lunch, 7 hours post dose; for Overall daily food intake compared with placebo: across breakfast, lunch and dinner
[1] = Total G933, N = 36, subjects n (%)

CCCCCCCCCCCCCCCC(=O)N[C@@H](CCC(=O)NCCCC[C@H](NC(=O)[C@H](CC(=O)O)NC(=O)[C@H](CO)NC(=O)C(NC(=O)[C@H](Cc1ccccc1)NC(=O)C(NC(=O)CNC(=O)[C@H](CCC(N)=O)NC(=O)[C@H](CO)NC(=O)[C@@H](N)Cc1cnc[nH]1)[C@@H](C)O)[C@@H](C)O)C(=O)N[C@@H](CO)C(=O)N[C@@H](CCC(=O)O)C(=O)N[C@@H](Cc1ccc(O)cc1)C(=O)N[C@@H](CC(C)C)C(=O)N[C@@H](CC(=O)O)C(=O)N[C@@H](CO)C(=O)N[C@@H](CCC(=O)O)C(=O)N[C@@H](CCCNC(=N)N)C(=O)N[C@@H](C)C(=O)N[C@@H](CCCNC(=N)N)C(=O)N[C@@H](CC(=O)O)C(=O)N[C@@H](Cc1ccccc1)C(=O)N[C@H](C(=O)N[C@@H](C)C(=O)N[C@@H](Cc1c[nH]c2ccccc12)C(=O)N[C@@H](CC(C)C)C(=O)N[C@@H](CCC(=O)O)C(=O)N[C@@H](C)C(=O)NCC(=O)NCC(=O)O)C(C)C)C(=O)O (some centres unmarked) [Peptide G933]
TEAE: Gastrointestinal Disorders (150 μg, N = 6, subjects n (%)): 5 (83.3%) | TEAE: Headache (150 μg, N = 6, subjects n (%)): 1 (16.7%) | TEAE: Immune System Disorders (150 μg, N = 6, subjects n (%)): 0 | TEAE: Injury associated with device (150 μg, N = 6, subjects n (%)): 0 | TEAE: Injury poisoning and procedural complications (150 μg, N = 6, subjects n (%)): 0 | TEAE: Metabolism and nutrition disorders (150 μg, N = 6, subjects n (%)): 2 (33.3%) | TEAE: Musculoskeletal and connective tissue disorders (150 μg, N = 6, subjects n (%)): 0 | TEAE: Musculoskeletal chest pain (150 μg, N = 6, subjects n (%)): 0 | TEAE: Nasopharyngitis (150 μg, N = 6, subjects n (%)): 0 | TEAE: Nausea (150 μg, N = 6, subjects n (%)): 4 (66.7%) | TEAE: Nervous system disorders (150 μg, N = 6, subjects n (%)): 1 (16.7%) | TEAE: Oropharyngeal pain (150 μg, N = 6, subjects n (%)): 1 (16.7%) | TEAE: Procedural dizziness (150 μg, N = 6, subjects n (%)): 0 | TEAE: Respiratory, thoracic and mediastinal disorders (150 μg, N = 6, subjects n (%)): 1 (16.7%) | TEAE: Seasonal allergy (150 μg, N = 6, subjects n (%)): 0 | TEAE: Subjects with at least one event (150 μg, N = 6, subjects n (%)): 5 (83.3%) | TEAE: Ventricular extrasystoles (150 μg, N = 6, subjects n (%)): 0 | TEAE: Vomiting (150 μg, N = 6, subjects n (%)): 4 (66.7%) | vomiting episodes (300 μg dose, 5 subjects): Thirty | tolerability (300 μg single SC dose): not tolerated | TEAE: Abdominal distension (300 μg, N = 6, subjects n (%)): 0 | TEAE: Abdominal pain (300 μg, N = 6, subjects n (%)): 0 | TEAE: Application site erosion (300 μg, N = 6, subjects n (%)): 0 | TEAE: Arrhythmia (300 μg, N = 6, subjects n (%)): 0 | TEAE: Atrioventricular block second degree (300 μg, N = 6, subjects n (%)): 0 | TEAE: Cardiac Disorders (300 μg, N = 6, subjects n (%)): 1 (16.7%) | TEAE: Decreased appetite (300 μg, N = 6, subjects n (%)): 0 | TEAE: Diarrhea (300 μg, N = 6, subjects n (%)): 0 | TEAE: Dizziness (300 μg, N = 6, subjects n (%)): 1 (16.7%) | TEAE: Gastrointestinal Disorders (300 μg, N = 6, subjects n (%)): 5 (83.3%) | TEAE: Headache (300 μg, N = 6, subjects n (%)): 0 | TEAE: Immune System Disorders (300 μg, N = 6, subjects n (%)): 0 | TEAE: Injury associated with device (300 μg, N = 6, subjects n (%)): 1 (16.7%) | TEAE: Injury poisoning and procedural complications (300 μg, N = 6, subjects n (%)): 0 | TEAE: Metabolism and nutrition disorders (300 μg, N = 6, subjects n (%)): 0 | TEAE: Musculoskeletal and connective tissue disorders (300 μg, N = 6, subjects n (%)): 0 | TEAE: Musculoskeletal chest pain (300 μg, N = 6, subjects n (%)): 0 | TEAE: Nasopharyngitis (300 μg, N = 6, subjects n (%)): 0 | TEAE: Nausea (300 μg, N = 6, subjects n (%)): 3 (50.0%) | TEAE: Oropharyngeal pain (300 μg, N = 6, subjects n (%)): 0 | TEAE: Procedural dizziness (300 μg, N = 6, subjects n (%)): 0 | TEAE: Respiratory, thoracic and mediastinal disorders (300 μg, N = 6, subjects n (%)): 0 | TEAE: Seasonal allergy (300 μg, N = 6, subjects n (%)): 0 | TEAE: Subjects with at least one event (300 μg, N = 6, subjects n (%)): 5 (83.3%) | TEAE: Ventricular extrasystoles (300 μg, N = 6, subjects n (%)): 1 (16.7%) | TEAE: Vomiting (300 μg, N = 6, subjects n (%)): 5 (83.3%) | TEAE: Abdominal distension [1]: 2 (5.6%) | TEAE: Abdominal pain [1]: 1 (2.8%) | TEAE: Application site erosion [1]: 1 (2.8%) | TEAE: Arrhythmia [1]: 1 (2.8%) | TEAE: Atrioventricular block second degree [1]: 1 (2.8%) | TEAE: Cardiac Disorders [1]: 3 (8.3%) | TEAE: Decreased appetite [1]: 2 (5.6%) | TEAE: Diarrhea [1]: 1 (2.8%) | TEAE: Dizziness [1]: 5 (13.9%) | TEAE: Gastrointestinal Disorders [1]: 12 (33.3%) | TEAE: Headache [1]: 4 (11.1%) | TEAE: Immune System Disorders [1]: 1 (2.8%) | TEAE: Injury associated with device [1]: 1 (2.8%) | TEAE: Injury poisoning and procedural complications [1]: 1 (2.8%) | TEAE: Metabolism and nutrition disorders [1]: 2 (5.6%) | TEAE: Musculoskeletal and connective tissue disorders [1]: 1 (2.8%) | TEAE: Musculoskeletal chest pain [1]: 1 (2.8%) | TEAE: Nasopharyngitis [1]: 1 (2.8%) | TEAE: Nausea [1]: 8 (22.2%) | TEAE: Oropharyngeal pain [1]: 1 (2.8%) | TEAE: Procedural dizziness [1]: 1 (2.8%) | TEAE: Respiratory, thoracic and mediastinal disorders [1]: 1 (2.8%) | TEAE: Seasonal allergy [1]: 1 (2.8%) | TEAE: Subjects with at least one event [1]: 21 (58.3%) | TEAE: Ventricular extrasystoles [1]: 1 (2.8%) | TEAE: Vomiting [1]: 10 (27.8%) | severity of treatment-emergent adverse events (all doses): Grade 1 (mild) or Grade 2 (moderate) | overall daily food intake (all doses compared with placebo, in words): reduction in overall daily food intake | plasma glucose levels (all doses, around meal times, in words): glucose lowering effect | ADA positive subjects (baseline or post-baseline): No subjects were ADA positive | tolerability with respect to nausea, vomiting, tachycardia and blood pressure (doses up to 150 μg): acceptable | geometric mean t1/2 (single SC dose): 10 to 12 h | Median diastolic BP maximum post dose change (single dose 5 μg): 13 mm Hg | Number of subjects with vomiting (single dose 5 μg): 0(0) | vomiting episodes (single dose 5 μg): 0(0) | Median glucose peak after breakfast (single dose 5 μg): 6.2 mmol/L | Median glucose peak after dinner (single dose 5 μg): 7.0 mmol/L | Median glucose peak after lunch (single dose 5 μg): 4.9 mmol/L | Overall daily food intake compared with placebo (single dose 5 μg): 100% | Median diastolic BP maximum post dose change (single dose 10 μg): 8 mm Hg | Number of subjects with vomiting (single dose 10 μg): 0(0) | vomiting episodes (single dose 10 μg): 0(0) | Median glucose peak after breakfast (single dose 10 μg): 5.8 mmol/L | Median glucose peak after dinner (single dose 10 μg): 6.0 mmol/L | Median glucose peak after lunch (single dose 10 μg): 5.1 mmol/L | Overall daily food intake compared with placebo (single dose 10 μg): 100% | Number of subjects with vomiting (single dose 30 μg): 0(0) | vomiting episodes (single dose 30 μg): 0(0) | Median glucose peak after breakfast (single dose 30 μg): 5.4 mmol/L | Median glucose peak after dinner (single dose 30 μg): 5.2 mmol/L | Median glucose peak after lunch (single dose 30 μg): 4.4 mmol/L | Overall daily food intake compared with placebo (single dose 30 μg): 96% | Median diastolic BP maximum post dose change (single dose 100 μg): 16 mm Hg | Number of subjects with vomiting (single dose 100 μg): 1(1) | vomiting episodes (single dose 100 μg): 1(1) | Median glucose peak after breakfast (single dose 100 μg): 5.5 mmol/L | Median glucose peak after dinner (single dose 100 μg): 5.2 mmol/L | Median glucose peak after lunch (single dose 100 μg): 4.7 mmol/L | Overall daily food intake compared with placebo (single dose 100 μg): 82% | Median diastolic BP maximum post dose change (single dose 150 μg): 15 mm Hg | Number of subjects with vomiting (single dose 150 μg): 4 | vomiting episodes (single dose 150 μg): 9 | Median glucose peak after breakfast (single dose 150 μg): 5.1 mmol/L | Median glucose peak after dinner (single dose 150 μg): 5.2 mmol/L | Median glucose peak after lunch (single dose 150 μg): 5.1 mmol/L | Overall daily food intake compared with placebo (single dose 150 μg): 60% | Median diastolic BP maximum post dose change (single dose 300 μg): 19 mm Hg | Number of subjects with vomiting (single dose 300 μg): 5 | vomiting episodes (single dose 300 μg): 30 | Median glucose peak after breakfast (single dose 300 μg): 4.7 mmol/L | Median glucose peak after dinner (single dose 300 μg): 4.9 mmol/L | Median glucose peak after lunch (single dose 300 μg): 5.1 mmol/L | Overall daily food intake compared with placebo (single dose 300 μg): 23%

From patent US20220041681A1 (MEDIMMUNE LIMITED, priority 2016, published 2022)
